# Measurements published in the CheMixHub viscosity set.
# ± gives the uncertainty stated by the source.
# Assay: xn = mol fraction of the nth substance listed
# Conditions: 101 kPa
smiles,measurement,setting,value
CCCCOC(C)=O + Cc1ccccc1,viscosity,"293.15 K, x2 = 0.1024",0.7105 ± 0.0073 mPa·s
same,viscosity,"293.15 K, x2 = 0.205",0.6942 ± 0.007 mPa·s
same,viscosity,"293.15 K, x2 = 0.3107",0.6786 ± 0.0068 mPa·s
same,viscosity,"293.15 K, x2 = 0.4031",0.6661 ± 0.0066 mPa·s
same,viscosity,"293.15 K, x2 = 0.4615",0.6566 ± 0.0065 mPa·s
same,viscosity,"293.15 K, x2 = 0.5069",0.6517 ± 0.0065 mPa·s
same,viscosity,"293.15 K, x2 = 0.5564",0.6439 ± 0.0064 mPa·s
same,viscosity,"293.15 K, x2 = 0.614",0.6371 ± 0.0063 mPa·s
same,viscosity,"293.15 K, x2 = 0.7101",0.6252 ± 0.0062 mPa·s
same,viscosity,"293.15 K, x2 = 0.8103",0.6123 ± 0.006 mPa·s
same,viscosity,"293.15 K, x2 = 0.908",0.6017 ± 0.006 mPa·s
same,viscosity,"298.15 K, x1 = 0.0478",0.552 ± 0.005 mPa·s
same,viscosity,"298.15 K, x1 = 0.1494",0.556 ± 0.005 mPa·s
same,viscosity,"298.15 K, x1 = 0.249",0.563 ± 0.005 mPa·s
same,viscosity,"298.15 K, x1 = 0.348",0.571 ± 0.005 mPa·s
same,viscosity,"298.15 K, x1 = 0.4469",0.581 ± 0.005 mPa·s
same,viscosity,"298.15 K, x1 = 0.501",0.587 ± 0.005 mPa·s
same,viscosity,"298.15 K, x1 = 0.5488",0.593 ± 0.005 mPa·s
same,viscosity,"298.15 K, x1 = 0.6468",0.607 ± 0.005 mPa·s
same,viscosity,"298.15 K, x1 = 0.7365",0.621 ± 0.005 mPa·s
same,viscosity,"298.15 K, x1 = 0.8683",0.645 ± 0.005 mPa·s
same,viscosity,"298.15 K, x1 = 0.9671",0.666 ± 0.005 mPa·s
same,viscosity,"298.15 K, x2 = 0.1024",0.6642 ± 0.0069 mPa·s
same,viscosity,"298.15 K, x2 = 0.205",0.6504 ± 0.0067 mPa·s
same,viscosity,"298.15 K, x2 = 0.3107",0.6362 ± 0.0065 mPa·s
same,viscosity,"298.15 K, x2 = 0.4031",0.6247 ± 0.0064 mPa·s
same,viscosity,"298.15 K, x2 = 0.4615",0.6161 ± 0.0063 mPa·s
same,viscosity,"298.15 K, x2 = 0.5069",0.6115 ± 0.0062 mPa·s
same,viscosity,"298.15 K, x2 = 0.5564",0.6045 ± 0.0061 mPa·s
same,viscosity,"298.15 K, x2 = 0.614",0.5984 ± 0.0061 mPa·s
same,viscosity,"298.15 K, x2 = 0.7101",0.5864 ± 0.006 mPa·s
same,viscosity,"298.15 K, x2 = 0.8103",0.5753 ± 0.0058 mPa·s
same,viscosity,"298.15 K, x2 = 0.908",0.5667 ± 0.0058 mPa·s
same,viscosity,"303.15 K, x2 = 0.1024",0.6223 ± 0.0066 mPa·s
same,viscosity,"303.15 K, x2 = 0.205",0.6104 ± 0.0065 mPa·s
same,viscosity,"303.15 K, x2 = 0.3107",0.5973 ± 0.0063 mPa·s
same,viscosity,"303.15 K, x2 = 0.4031",0.587 ± 0.0061 mPa·s
same,viscosity,"303.15 K, x2 = 0.4615",0.579 ± 0.0061 mPa·s
same,viscosity,"303.15 K, x2 = 0.5069",0.5746 ± 0.006 mPa·s
same,viscosity,"303.15 K, x2 = 0.5564",0.5683 ± 0.0059 mPa·s
same,viscosity,"303.15 K, x2 = 0.614",0.5628 ± 0.0059 mPa·s
same,viscosity,"303.15 K, x2 = 0.7101",0.5515 ± 0.0058 mPa·s
same,viscosity,"303.15 K, x2 = 0.8103",0.5419 ± 0.0057 mPa·s
same,viscosity,"303.15 K, x2 = 0.908",0.5337 ± 0.0056 mPa·s
same,viscosity,"308.15 K, x1 = 0.0478",0.499 ± 0.004 mPa·s
same,viscosity,"308.15 K, x1 = 0.1494",0.503 ± 0.004 mPa·s
same,viscosity,"308.15 K, x1 = 0.249",0.509 ± 0.004 mPa·s
same,viscosity,"308.15 K, x1 = 0.348",0.515 ± 0.004 mPa·s
same,viscosity,"308.15 K, x1 = 0.4469",0.523 ± 0.004 mPa·s
same,viscosity,"308.15 K, x1 = 0.501",0.528 ± 0.005 mPa·s
same,viscosity,"308.15 K, x1 = 0.5488",0.532 ± 0.005 mPa·s
same,viscosity,"308.15 K, x1 = 0.6468",0.543 ± 0.005 mPa·s
same,viscosity,"308.15 K, x1 = 0.7365",0.554 ± 0.005 mPa·s
same,viscosity,"308.15 K, x1 = 0.8683",0.572 ± 0.005 mPa·s
same,viscosity,"308.15 K, x1 = 0.9671",0.588 ± 0.005 mPa·s
same,viscosity,"308.15 K, x2 = 0.1024",0.5852 ± 0.0064 mPa·s
same,viscosity,"308.15 K, x2 = 0.205",0.5742 ± 0.0062 mPa·s
same,viscosity,"308.15 K, x2 = 0.3107",0.5624 ± 0.0061 mPa·s
same,viscosity,"308.15 K, x2 = 0.4031",0.5526 ± 0.0059 mPa·s
same,viscosity,"308.15 K, x2 = 0.4615",0.546 ± 0.0059 mPa·s
same,viscosity,"308.15 K, x2 = 0.5069",0.5408 ± 0.0058 mPa·s
same,viscosity,"308.15 K, x2 = 0.5564",0.5352 ± 0.0058 mPa·s
same,viscosity,"308.15 K, x2 = 0.614",0.5301 ± 0.0057 mPa·s
same,viscosity,"308.15 K, x2 = 0.7101",0.5197 ± 0.0056 mPa·s
same,viscosity,"308.15 K, x2 = 0.8103",0.5103 ± 0.0055 mPa·s
same,viscosity,"308.15 K, x2 = 0.908",0.5035 ± 0.0054 mPa·s
same,viscosity,"313.15 K, x2 = 0.1024",0.5502 ± 0.0062 mPa·s
same,viscosity,"313.15 K, x2 = 0.205",0.5405 ± 0.006 mPa·s
same,viscosity,"313.15 K, x2 = 0.3107",0.5294 ± 0.0059 mPa·s
same,viscosity,"313.15 K, x2 = 0.4031",0.5208 ± 0.0058 mPa·s
same,viscosity,"313.15 K, x2 = 0.4615",0.514 ± 0.0057 mPa·s
same,viscosity,"313.15 K, x2 = 0.5069",0.5103 ± 0.0056 mPa·s
same,viscosity,"313.15 K, x2 = 0.5564",0.5051 ± 0.0056 mPa·s
same,viscosity,"313.15 K, x2 = 0.614",0.5003 ± 0.0055 mPa·s
same,viscosity,"313.15 K, x2 = 0.7101",0.4913 ± 0.0055 mPa·s
same,viscosity,"313.15 K, x2 = 0.8103",0.4833 ± 0.0054 mPa·s
same,viscosity,"313.15 K, x2 = 0.908",0.4761 ± 0.0053 mPa·s
same,viscosity,"318.15 K, x2 = 0.1024",0.5173 ± 0.006 mPa·s
same,viscosity,"318.15 K, x2 = 0.205",0.5084 ± 0.0058 mPa·s
same,viscosity,"318.15 K, x2 = 0.3107",0.4996 ± 0.0057 mPa·s
same,viscosity,"318.15 K, x2 = 0.4031",0.4908 ± 0.0056 mPa·s
same,viscosity,"318.15 K, x2 = 0.4615",0.4858 ± 0.0055 mPa·s
same,viscosity,"318.15 K, x2 = 0.5069",0.4814 ± 0.0055 mPa·s
same,viscosity,"318.15 K, x2 = 0.5564",0.4769 ± 0.0054 mPa·s
same,viscosity,"318.15 K, x2 = 0.614",0.4725 ± 0.0054 mPa·s
same,viscosity,"318.15 K, x2 = 0.7101",0.4644 ± 0.0053 mPa·s
same,viscosity,"318.15 K, x2 = 0.8103",0.4562 ± 0.0052 mPa·s
same,viscosity,"318.15 K, x2 = 0.908",0.4496 ± 0.0052 mPa·s
